Laboratory results: PubChem BioAssay AID493250 (Broad Institute, 2011)
The source made the active and inactive calls.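 How the source made its calls: active means signal decrease with fitted half-maximal dose at or below ten times the highest valid tested dose; inconclusive means poor fit, or flat fit at 30 to 70% inhibition; inactive means the rest.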

Target: Zinc finger protein mex-5 (Caenorhabditis elegans) (UniProt Q9XUB2)
Test: MEX-5 zinc finger-RNA interaction blockers – biochemical, fluorescence polarization, C. elegans, cherry-picked, round 3, dose response (AID 493250)
Details: purified MEX-5-MBP, FITC-TCR2 RNA fluorescence polarization; for activity change, negative = inhibition: at 10 µM (top of the series)

Zinc finger protein mex-5 (Caenorhabditis elegans), sequence (Q9XUB2 whole entry, looked up): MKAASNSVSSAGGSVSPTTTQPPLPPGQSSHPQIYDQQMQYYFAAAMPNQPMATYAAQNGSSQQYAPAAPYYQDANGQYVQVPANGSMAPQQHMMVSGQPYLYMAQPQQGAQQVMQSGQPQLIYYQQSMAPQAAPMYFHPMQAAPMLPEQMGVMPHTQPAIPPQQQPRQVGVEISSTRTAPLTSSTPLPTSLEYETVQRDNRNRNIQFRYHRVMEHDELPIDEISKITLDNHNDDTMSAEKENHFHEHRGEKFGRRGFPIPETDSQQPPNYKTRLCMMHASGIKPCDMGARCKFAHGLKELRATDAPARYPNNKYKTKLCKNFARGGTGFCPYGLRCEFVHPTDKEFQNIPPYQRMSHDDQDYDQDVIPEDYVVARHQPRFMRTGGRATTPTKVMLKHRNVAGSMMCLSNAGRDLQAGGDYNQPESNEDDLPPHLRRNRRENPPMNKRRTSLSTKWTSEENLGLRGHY

Row | Structure (SMILES) | activity change, negative = inhibition | AC50
1 | O=C(NNC(=O)c1ccccc1[N+](=O)[O-])c1ccco1 | inactive | –
2 | COCCNc1ncnc2nc[nH]c12 | inactive | –
3 | COc1ccc(CCn2c(=N)c(C(=O)NCC3CCCO3)cc3c(=O)n4ccccc4nc32)cc1 (centres undefined) | inactive | –
4 | O=C(O)c1ccc2cccnc2c1O | inactive | –
5 | O=C1NC(=O)/C(=C/c2ccc(N3CCOCC3)o2)N1 | inactive | –
6 | Cc1ccc2c(c1)-c1ccccc1S(=O)(=O)N2 | inactive | –
7 | Cc1cc(C)c[n+](-c2nc([O-])sc2C=O)c1 | inactive | –
8 | Cc1ccc(N2C(=O)c3ccc(C(=O)O)cc3C2=O)cc1C | inactive | –
9 | CC(=O)CCS(=O)(=O)c1ccc(Oc2ccc(S(=O)(=O)CCC(C)=O)cc2)cc1 | inactive | –
10 | COc1ccc(NC(=O)c2coc(C)c2)cc1 | inactive | –
11 | CCCCN(CCCC)CCNC(=O)CNC(=O)c1cccs1 | inactive | –
12 | Cc1cccn2c(=O)c3cc(C(=O)NC(C)C)c(=N)n(Cc4ccncc4)c3nc12 | inactive | –
13 | Cc1nc2ccc(NC(=O)NC(=O)c3c(Cl)cccc3Cl)cc2o1 | inactive | –
14 | COc1cc(/C=C2\CCCc3c2nc2ccccc2c3C(=O)O)cc(OC)c1O | inactive | –
15 | COC(=O)c1ccccc1N=Nc1c(N)n[nH]c1N | inactive | –
16 | CCN(CC)c1ccc(C(=O)N/N=C(\C)c2cccnc2)cc1 | inactive | –
17 | O=C(O)c1cc(Oc2ccc(C(F)(F)F)cc2Cl)ccc1[N+](=O)[O-] | inactive | –
18 | CCN(CC)c1ccc(/C=N/N2CCN(c3ccccc3OC)CC2)cc1 | inactive | –
19 | CNC(=O)c1c(NC(=O)c2nc3ccccc3s2)sc2c1CCC2 | inactive | –
20 | CCCOc1ccc(C2=CSC3=NCCN23)cc1[N+](=O)[O-] | inactive | –
21 | CN1CCc2c(sc(NC(=O)C3CCCN3S(=O)(=O)c3ccc(Cl)s3)c2C(N)=O)C1 (centres undefined) | inactive | –
22 | COc1ccc(CCn2c(=N)c(C(=O)NCC3CCCO3)cc3c(=O)n4cccc(C)c4nc32)cc1 (centres undefined) | inactive | –
23 | CN(C)CC(O)COc1ccc(C(C)(C)c2ccc(OCC(O)CN(C)C)cc2)cc1 (centres undefined) | inactive | –
24 | O=C1c2cccc3cccc(c23)C(=O)N1Cc1ccccc1 | inactive | –
25 | CCCOc1ccc([C@@H]2C3CN(C(=O)OCC)CC=C3C(C#N)=C(N)C2(C#N)C#N)cc1OC (some centres undefined) | inactive | –
26 | COC(=O)C1=COC(C)C2CN3CCc4c([nH]c5ccccc45)C3CC12 (centres undefined) | – | 4.21 µM
27 | Cc1c(N=Cc2cc3c(cc2[N+](=O)[O-])OCO3)cccc1[N+](=O)[O-] | inactive | –

Row | Structure (SMILES) | activity change, negative = inhibition | AC50
28 | COc1cc(/C=N/NC(=O)c2ccc(=O)[nH]n2)ccc1O | inactive | –
29 | Cn1c(O)c(N=Nc2ccc(F)cc2)c2ccccc21 | – | 1.75 µM
30 | CC(=O)Nc1ccc(/C=N\NC(=O)CNS(=O)(=O)c2ccc([N+](=O)[O-])cc2)cc1 | inactive | –
31 | Nc1ccc([N+](=O)[O-])cc1C(=O)NNC(=O)c1ccco1 | inactive | –
32 | COc1c(O)ccc(/C=C(\C#N)c2nc3ccccc3[nH]2)c1[N+](=O)[O-] | inactive | –
33 | Cc1cc(=O)n2[nH]c(N)c(N=Nc3ccccc3F)c2n1 | inactive | –
34 | COc1ccccc1C(=O)NNC(=O)c1csc(N2CCOCC2)n1 | inactive | –
35 | COc1ccc(-n2c(O)c(/C=N/NS(=O)(=O)c3cc(C)ccc3C)c3ccccc3c2=O)cc1OC | – | 1.32 µM
36 | COCCNC(=S)NNC(=O)c1cccs1 | inactive | –
37 | Nc1c(NCc2ccccc2)c(=O)[nH]c(=O)n1Cc1ccccc1 | inactive | –
38 | COc1nc(N/N=C/c2ccc(-c3ccccc3[N+](=O)[O-])o2)nc(N2CCOCC2)n1 | inactive | –
39 | Cc1ccc(NC(=O)CCC(=O)NNC(=S)Nc2ccccc2)c(C)c1 | inactive | –
40 | COc1cccc(NCc2cc(=O)oc3cc(C)c(O)cc23)c1 | inactive | –
41 | COc1ccc(CCNc2c3ccccc3nc3ccccc23)cc1OC | inactive | –
42 | COc1ccc(/C=N/NC(=O)c2ccc(=O)[nH]n2)cc1OC | inactive | –
43 | CCCc1cc(C(=O)Cc2ccc(C(=O)OCC)o2)c(O)cc1O | inactive | –
44 | CCc1nc2ccccc2c(=O)n1/N=C/c1ccc(OC)cc1 | inactive | –
45 | Oc1cccc(/C=N/NC(=S)Nc2cccnc2)c1O | inactive | –
46 | CC(=O)Nc1ccc(N=NC2C(=O)N(C(N)=S)N=C2C)cc1 (centres undefined) | inactive | –
47 | O=C(NC1CCSc2ccccc21)c1cccc(Br)c1 (centres undefined) | inactive | –
48 | O=[N+]([O-])c1ccccc1NC(=S)N/N=C/c1ccc(O)c(O)c1 | – | 10.4 µM
49 | CC1=Nc2ccccc2/C1=C\c1nc(-c2ccccc2)oc1O | inactive | –
50 | CC1CN2C(c3ccc(Cl)cc3)=CSC2=N1 (centres undefined) | inactive | –
51 | Cc1nc2c3ccccc3nc(NNC(=O)CCC(=O)N3CCC(C)CC3)n2n1 | inactive | –
52 | CC(C)CNC(=O)c1ccccc1Oc1ccccc1 | inactive | –
53 | COc1ccccc1/C=C1\SC(=S)N(CCC(=O)Nc2cc(C)on2)C1=O | – | > 10 µM (inactive)
54 | O=C1SC(SCc2ccccc2)=N/C1=C\c1ccc(C(=O)O)cc1 | inactive | –

Row | Structure (SMILES) | activity change, negative = inhibition | AC50
55 | Cc1ccc(S(=O)(=O)c2cc3c(=O)n4ccccc4nc3n(C3CCCCC3)c2=N)cc1 | – | > 10 µM (inactive)
56 | Cc1ccc(C(=O)O)cc1-c1ccc(/C=C2\SC(=O)N(CC(=O)Nc3ccccc3)C2=O)o1 | – | 2.74 µM
57 | CCOC(=O)C1CSc2[nH]c(=O)sc2C1c1ccccc1 (centres undefined) | inactive | –
58 | O=c1nc(-c2ccccc2)c2cc(Br)ccc2[nH]1 | inactive | –
59 | C=CCc1cccc2cc(C(=O)NNC(=O)CC#N)c(=O)oc12 | inactive | –
60 | CCn1c(C)nc2c1C(=O)c1ccccc1C2=O | inactive | –
61 | Cn1c(O)c(C2=c3ccccc3=NC2=O)[nH]c1=S | inactive | –
62 | Cc1ccc2c(c1)c(C1=NC(=S)NC1=O)c(O)n2C | inactive | –
63 | NC(=S)N=Nc1c(O)[nH]c2cc(F)c(F)cc12 | inactive | –
64 | CCOc1cc(/C=N/Nc2nc(=O)[nH]nc2C)ccc1O | inactive | –
65 | Cn1cc(CNC(=O)C2c3ccccc3Oc3ccccc32)cn1 | inactive | –
66 | CN1C(=O)N(C)C(c2cccc([N+](=O)[O-])c2)C2=C1CCCC2=O (centres undefined) | inactive | –
67 | N#CCCn1c2ccccc2c2nc3ccccc3nc21 | inactive | –
68 | O=C(Nc1cccnc1)c1cccs1 | inactive | –
69 | Cc1cccc2c(N=Nc3ccccc3)c(O)[nH]c12 | – | > 10 µM (inactive)
70 | Cc1ccc(C(=O)NNc2ncnc3c2cnn3C)cc1 | inactive | –
71 | N[C@@H](Cc1ccccc1)C(=O)N1CCC(C(=O)NCC(=O)Nc2ccc(F)cc2)CC1 | inactive | –
72 | COC(=O)c1cccc(-c2ccc(C(c3c(C)[nH][nH]c3=O)c3c(C)[nH][nH]c3=O)o2)c1 | inactive | –
73 | CSc1nsc2nc(=O)c(/C=C3\C(C)=Nc4ccc(C)cc43)c(N)n12 | inactive | –
74 | COc1ccc(C(CC(=O)N2CCCC2)c2c(OC)cc(OC)c3ccc(=O)oc23)cc1 (centres undefined) | inactive | –
75 | CCCCn1c(N)c(N(CCOC)C(=O)c2ccc(Br)o2)c(=O)[nH]c1=O | inactive | –
76 | CCOc1ccccc1N=NC1C(=O)N(C(N)=S)N=C1C (centres undefined) | inactive | –
77 | COc1cccc(NC(=S)NNC(=O)C(C)n2nc(C)c([N+](=O)[O-])c2C)c1 (centres undefined) | inactive | –
78 | Cc1ccc2c(c1)c1nc3ccccc3nc1n2C | – | 6.78 µM
79 | COC(=O)c1ccccc1-c1ccc(C(c2c(C)[nH][nH]c2=O)c2c(C)[nH][nH]c2=O)o1 | inactive | –
